# From patent US6677277B1, “Substituted sulphonyl amino(thio)carbonyl compounds and their use as herbicides” (Bayer Aktiengesellschaft, priority 1996, dated 2004)
# Legend:
# weeds [1] = experiment: Post-emergence test; format: in vivo; details: cf. Tables B-1 to B-4
# Description: (§1) Post-emergence Test Solvent: 5 parts by weight of acetone Emulsifier: 1 part by weight of alkylaryl polyglycol ether To produce a suitable preparation of active compound, 1 part by weight of active compound is mixed with the stated amount of solvent, the stated amount of emulsifier is added and the concentrate is diluted with water to the desired concentration. Test plants which have a height of 5-15 cm are sprayed with the preparation of the active compound in such a way as to apply the particular amounts of active compound desired per unit area. The concentration of the spray liquor is chosen so that the particular amounts of active compound desired are applied in 1000 l of water/ha. After three weeks, the degree of damage to the plants is rated in % damage in comparison to the development of the untreated control. The figures denote: [table]
# Amaranthus [2] = experiment: Post-emergence test/greenhouse; format: in vivo; details: post-emergence, after three weeks
# Description: as §1
# Wheat [3] = experiment: Post-emergence test/greenhouse; format: in vivo; details: after three weeks
# Description: as §1
# Matricaria = experiment: Post-emergence test/greenhouse; format: in vivo; details: after three weeks
# Description: as §1
# Xanthium = experiment: Post-emergence test/greenhouse; format: in vivo; details: post-emergence, after three weeks
# Description: as §1
# Solanum = experiment: Post-emergence test/greenhouse; format: in vivo; details: post-emergence, after three weeks
# Description: as §1
# Amaranthus [4] = experiment: Pre-emergence test/greenhouse; format: in vivo; details: after three weeks
# Description: (§2) Pre-emergence Test Solvent: 5 parts by weight of acetone Emulsifier: 1 part by weight of alkylaryl polyglycol ether To produce a suitable preparation of active compound, 1 part by weight of active compound is mixed with the stated amount of solvent, the stated amount of emulsifier is added and the concentrate is diluted with water to the desired concentration. Seeds of the test plants are sown in normal soil. After about 24 hours, the soil is sprayed with the preparation of the active compound in such a way as to apply the particular amounts of active compound desired per unit area The concentration of the spray liquor is chosen so that the particular amounts of active compound desired are applied in 1000 l of water/ha. After three weeks, the degree of damage to the plants is rated in % damage in comparison to the development of the untreated control. The figures denote: [table]
# Wheat [5] = experiment: Pre-emergence test/greenhouse; format: in vivo; details: after three weeks
# Description: as §2
# Alopecurus = experiment: Pre-emergence test/greenhouse; format: in vivo; details: after three weeks
# Description: as §2
# Chenopodium = experiment: Pre-emergence test/greenhouse; format: in vivo; details: after three weeks
# Description: as §2
# Bromus = experiment: Pre-emergence test/greenhouse; format: in vivo; details: after three weeks
# Description: as §2
# Veronica = experiment: Pre-emergence test/greenhouse; format: in vivo; details: after three weeks
# Description: as §2
# Cotton = experiment: Pre-emergence test/greenhouse; format: in vivo; details: after three weeks
# Description: as §2
# Echinochloa = experiment: Pre-emergence test/greenhouse; format: in vivo; details: after three weeks
# Description: as §2
# weeds [6] = experiment: Pre-emergence test; format: in vivo; details: cf. Tables A-1 to A-5
# Description: as §2
# [7] = log P n-octanol/water by the HPLC method; format: physicochemical; details: at pH 2, eluent acetonitrile containing 1% of H3PO4
structure (smiles),measurement,setting,value
CCSc1cccc(C)c1S(=O)(=O)NC(=O)n1nc(CC)n(C)c1=O [Example 55],activity against weeds,weeds [1],very strong activity
same,"% damage, Amaranthus",Amaranthus [2]; 60 g ai./ha,95%
same,"% damage, Wheat",Wheat [3]; 60 g ai./ha,20%
same,"% damage, Matricaria",Matricaria; 60 g ai./ha,95%
same,"% damage, Xanthium",Xanthium; 60 g ai./ha,100%
same,"% damage, Solanum",Solanum; 60 g ai./ha,90%
CCOc1nn(C(=O)NS(=O)(=O)c2c(C)cccc2SCC)c(=O)n1C [Example 56],activity against weeds,weeds [1],very strong activity
same,"% damage, Amaranthus",Amaranthus [2]; 125 g ai./ha,100%
same,"% damage, Wheat",Wheat [3]; 125 g ai./ha,10%
same,"% damage, Matricaria",Matricaria; 125 g ai./ha,100%
same,"% damage, Xanthium",Xanthium; 125 g ai./ha,100%
same,"% damage, Solanum",Solanum; 125 g ai./ha,100%
CCOc1nn(C(=O)NS(=O)(=O)c2c(SC(C)(C)C)cccc2C(F)(F)F)c(=O)n1C [Example 60],"% damage, Amaranthus",Amaranthus [4]; 125 g ai./ha,100%
same,"% damage, Wheat",Wheat [5]; 125 g ai./ha,0%
same,"% damage, Alopecurus",Alopecurus; 125 g ai./ha,90%
same,"% damage, Chenopodium",Chenopodium; 125 g ai./ha,100%
same,"% damage, Bromus",Bromus; 125 g ai./ha,95%
same,"% damage, Veronica",Veronica; 125 g ai./ha,100%
same,"% damage, Cotton",Cotton; 125 g ai./ha,20%
same,"% damage, Echinochloa",Echinochloa; 125 g ai./ha,100%
same,activity against weeds,weeds [6],very strong activity
COc1nn(C(=O)NS(=O)(=O)c2c(SC)cccc2C(F)(F)F)c(=O)n1C [Example 61],"% damage, Amaranthus",Amaranthus [4]; 60 g ai./ha,100%
same,"% damage, Wheat",Wheat [5]; 60 g ai./ha,30%
same,"% damage, Alopecurus",Alopecurus; 60 g ai./ha,95%
same,"% damage, Chenopodium",Chenopodium; 60 g ai./ha,100%
same,"% damage, Bromus",Bromus; 60 g ai./ha,100%
same,"% damage, Veronica",Veronica; 60 g ai./ha,80%
same,"% damage, Cotton",Cotton; 60 g ai./ha,0%
same,"% damage, Echinochloa",Echinochloa; 60 g ai./ha,100%
same,activity against weeds,weeds [6],very strong activity
COc1nn(C(=O)NS(=O)(=O)c2c(SCC(F)F)cccc2C(F)(F)F)c(=O)n1C [Example 99],log P,[7],(log P = 2.59)
COc1nn(C(=O)NS(=O)(=O)c2c(SCC(F)F)cccc2C(F)(F)F)c(=O)n1C1CC1 [Example 100],log P,[7],(log P = 2.96)
CSc1nn(C(=O)NS(=O)(=O)c2c(C)cccc2SCC(F)F)c(=O)n1C [Example 101],log P,[7],(log P = 2.73)
